One data set has as its target hERG (Homo sapiens, UniProt Q12809). The data set can be described thus: hERG binding assay. Background: The hERG channel carries a current that helps repolarise heart muscle cells.
The conditions of data set [1]: mouse, microsomes.
For data set [2], the system named is CHO-K1: Chinese hamster ovary cell line.
Data set [3] concerns NIH 3T3: mouse embryonic fibroblast cell line.
The test system of data set [4] is HFL-1: human embryonic lung cell line.
For data set [5] the following is noted: human, microsomes.
The conditions of data set [6]: rat, microsomes.
Data set [7] concerns L929: mouse fibroblast cell line.
The subject of data set [8] is VERO: African green monkey kidney cell line.
A further data set is described as follows: in vitro. The following applies: African green monkey.

Entries after “also recorded” stand apart in the source; their conditions may differ. Where two headings read alike, the source gives them in different places.

The term IC50 denotes the concentration that gives 50% inhibition.

Chain of hERG (Q12809 whole entry): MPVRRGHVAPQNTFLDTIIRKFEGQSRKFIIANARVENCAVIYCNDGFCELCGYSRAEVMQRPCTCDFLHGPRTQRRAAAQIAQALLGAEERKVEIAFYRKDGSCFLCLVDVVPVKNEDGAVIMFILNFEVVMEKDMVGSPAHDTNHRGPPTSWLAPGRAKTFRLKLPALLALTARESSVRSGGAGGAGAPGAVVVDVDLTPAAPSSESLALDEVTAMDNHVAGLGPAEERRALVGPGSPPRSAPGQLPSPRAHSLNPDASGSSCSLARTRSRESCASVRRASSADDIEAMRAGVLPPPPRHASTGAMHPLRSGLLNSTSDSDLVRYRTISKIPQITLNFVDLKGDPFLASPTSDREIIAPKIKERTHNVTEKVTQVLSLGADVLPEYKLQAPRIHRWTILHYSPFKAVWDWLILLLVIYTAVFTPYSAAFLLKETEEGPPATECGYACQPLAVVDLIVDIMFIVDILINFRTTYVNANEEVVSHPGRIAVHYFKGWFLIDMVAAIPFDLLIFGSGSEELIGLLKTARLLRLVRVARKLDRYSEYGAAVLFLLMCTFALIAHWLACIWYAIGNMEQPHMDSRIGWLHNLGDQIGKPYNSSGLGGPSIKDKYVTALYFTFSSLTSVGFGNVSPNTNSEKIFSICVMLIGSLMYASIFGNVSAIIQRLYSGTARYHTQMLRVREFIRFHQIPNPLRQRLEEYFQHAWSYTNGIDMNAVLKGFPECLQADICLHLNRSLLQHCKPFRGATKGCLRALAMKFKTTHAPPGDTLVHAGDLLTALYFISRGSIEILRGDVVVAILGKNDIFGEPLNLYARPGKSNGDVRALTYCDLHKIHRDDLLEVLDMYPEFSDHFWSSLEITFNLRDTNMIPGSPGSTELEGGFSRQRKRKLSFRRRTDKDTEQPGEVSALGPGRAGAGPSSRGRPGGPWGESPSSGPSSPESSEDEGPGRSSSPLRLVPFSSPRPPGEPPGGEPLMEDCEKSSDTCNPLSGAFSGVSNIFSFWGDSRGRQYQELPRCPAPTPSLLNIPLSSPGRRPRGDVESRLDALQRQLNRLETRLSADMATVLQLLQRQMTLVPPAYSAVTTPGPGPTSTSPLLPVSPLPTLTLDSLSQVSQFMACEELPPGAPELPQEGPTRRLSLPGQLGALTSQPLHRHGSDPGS

Regarding “5,6,8-Tichloro-2-((2,4-difluorophenyl)amino)-3-isobutyrylquinolin-4(1H)-one [Compound 6y]”, the IC50 with MERS-CoV (read-out: IC50 (MERS-CoV inhibitory activity)) amounted to 0.129 ± 0.026 µM. Take `CC(=O)c1c(NC(C)C)[nH]c2c(C(C)C)cccc2c1=O` [Compound 6a, 3-Aetyl-8-isopropyl-2-(isopropylamino)quinolin-4(1H)-one]: the “inhibitory effect on MERS-CoV (in words)” value in the data set with MERS-CoV was “no inhibitory effects”. The same measure, in the same setting: in the case of `CC(=O)c1c(NC(C)C)[nH]c2c(C)cc(C)cc2c1=O` [Compound 6b, 3-Aetyl-2-(isopropylamino)-6,8-dimethylquinolin-4(1H)-one] it was “no inhibitory effects”; in that of `CC(C)Nc1[nH]c2c(C(F)(F)F)cc(Cl)cc2c(=O)c1C(=O)c1ccccc1` [Compound 6c, 3-Bnzoyl-6-chloro-2-(isopropylamino)-8-(trifluoromethyl)quinolin-4(1H)-one], “detrimental for inhibitory effect; also recorded: completely abolished activity”; in that of `CC(=O)c1c(N2CCCCC2)[nH]c2c(F)cc(F)cc2c1=O` [Compound 6i, 3-Acetyl-6,8-difluoro-2-(piperidin-1-yl)quinolin-4(1H)-one], “no inhibitory effect”. On the same count and under the same terms, in the case of `CC(=O)c1c(N2CCOCC2)[nH]c2c(F)cc(F)cc2c1=O` [Compound 6j, 3-Acetyl-6,8-difluoro-2-morpholinoquinolin-4(1H)-one] it was “no inhibitory effect”; in that of `CCCCNc1[nH]c2c(F)cc(F)cc2c(=O)c1C(C)=O` [Compound 6k, 3-Acetyl-2-(butylamino)-6,8-difluoroquinolin-4(1H)-one], “no inhibitory effect”; in that of `COc1cccc(Nc2[nH]c3c(F)cc(F)cc3c(=O)c2C(C)=O)c1` [Compound 6p, 3-Acetyl-6,8-difluoro-2-((3-methoxyphenyl)amino)quinolin-4(1H)-one], “no inhibitory effects”. For `COc1ccc(Nc2[nH]c3c(F)cc(F)cc3c(=O)c2C(C)=O)cc1` [Compound 6q, 3-Acetyl-6,8-difluoro-2-((4-methoxyphenyl)amino)quinolin-4(1H)-one], the “inhibitory effect on MERS-CoV (in words)” value in the data set with MERS-CoV is reported as “no inhibitory effects”. As to `CC(C)C(=O)c1c(Nc2ccc(F)c(F)c2F)[nH]c2c(F)cc(F)cc2c1=O` [Compound 6u, 6,8-Difluoro-3-isobutyryl-2-((2,3,4-trifluorophenyl)amino)quinolin-4(1H)-one], the “hERG binding affinity (in words)” value at hERG is recorded as “low hERG binding affinity”. Moreover, the “metabolic stability (in words)” value in data set [1], in data set [5] and in data set [6] was “good metabolic stability” in each case. The “cytotoxicity (in words)” value in [2], in data set [3], in data set [4], in data set [7] and in data set [8] was “no cytotoxicity” each time. Moreover, the IC50 in the data set “in vitro” turned out to be 86.1 µM.

(Values after article PMC7126094 (Bioorganic & Medicinal Chemistry Letters, 2019).)
